Data from ChEMBL document CHEMBL1134312, “Design, synthesis, and biological activity of a novel non-cisplatin-type platinum-acridine pharmacophore” (J Med Chem, 2001).

Tests used:
C13 = assay: Cytotoxicity against cisplatin-resistant cell lines (C13*); format: functional, cell-based, Homo sapiens
HL-60 = assay: Cytotoxicity against HL-60 leukemia cells; format: functional, cell-based, Homo sapiens
[1] = Cytotoxicity against human ovarian 2008 (wild type) cell lines; format: functional, cell-based

“2-(9-acridiniumylamino)ethyl(methyl)amino(imino)methyl(methyl)amine1-PtCl(en)” gave an IC50 (C13; c13) of 9.6 µM, an IC50 (HL-60; hl-60) of 0.13 µM and an IC50 [1] of 3.8 µM.
With CNC(=S)N(C)CCNc1c2ccccc2nc2ccccc12 the IC50 (C13; Homo sapiens, C13) was 3.7 µM, the IC50 (HL-60; Homo sapiens, HL-60) was 11 µM and the IC50 ([1]; Homo sapiens) was 2.2 µM.
For “9-acridinylmethylamino-methylaminomethanethione1-PtCl(en)”, the IC50 (C13; c13) was > 100 µM, the IC50 (HL-60; hl-60) was 75 µM and the IC50 [1] was > 100 µM.
